# Experimental data as given in US4734280A, “Treatment or prevention of PAF Acether-induced maladies” (priority 1984, dated 1988).
# Like-named read-outs stand apart in the source and are kept apart here.
# Key:
# Sprague-Dowley rats = assay: Cutaneous vascular hyperpermeability induced by PAF Acether in the rat; type: in vivo; conditions: 1 mg/kg IV
# Method: Method: Intradermal injection of 25 ng of PAF Acether in the dorsal region of the rat with simultaneous IV injection of Evans blue dye (60 mg/kg/5 ml) induces vascular hyperpermeability and wheals formation. (for details see Basran GS, Page CP, Paul W and Morley J-Cromoglycate inhibits responses to platelet-activating factor (PAF Acether) in man: an alternative mode of action for DSCG in asthma-Eur. J. Pharma. (1983) 86 143-144).
# These wheals were measured (surface in mm^2) at the inner side of the skin 30 mn after the injections and were taken off, put in 4 ml of formamide, incubated at 65° C. during 24 h in order to extract the dye and measure their coloration (optical density at 620 nm).
# Groups of 6 Sprague-Dowley rats weighing 200 g were used and each rat received intradermal injections in two sites of the back. The experiment was performed in comparison with a reference compound, D 600 (methoxy verapamil), a calcium-blocker agent.
# Treatments: Tested compounds were administered by IV route injected once simultaneously with the dye.
# human PRP = assay: Inhibition of PAF Acether-induced PA, human PRP in vitro; type: cell-based; conditions: PAF Acether 100 nM, read-out: IC Doses (PAF Acether-induced PA, human PRP)
# Method: (§1) The Inhibition of PAF Acether-induced PA has been studied on rabbit plasma-rich platelets (PRP). Two doses of PAF Acether were used (2.5 nM and 5 nM). The tested compound was added to the medium 3 minutes before PAF Acether and aggregation was followed by monitoring changes in electrical impedance (Whole-Blood aggregometer-chrono-Log); kadsurenone was simultaneously tested as reference compound and the IC50 molar doses of Ginkgolides A, B, C and M and of kadsurenone on PAF Acether-induced rabbit PA (PRP) have been calculated.
# The inhibition of PAF Acether-induced PA has been studied on human PRP. The same protocol was used as for rabbit hereinabove.
# [1] = tested on: rabbit plasma-rich platelets (PRP); assay: Inhibition of PAF Acether-induced PA, rabbit PRP in vitro; type: cell-based; conditions: Oryctolagus cuniculus, Platelet, average of 10 assays, read-out: IC50 doses on PAF Acether-induced rabbit PA (PRP)
# Method: as §1
# The results obtained are presented in the following table (average values for 10 assays for each dose) and FIG. 1: […]
# [2] = tested on: guinea-pig isolated heart; assay: Isolated Langendorff heart, PAF Acether effect; conditions: PAF Acether 100 pM
# From the text: The deletereous effect of PAF Acether on Isolated Langendorff heart has been previously described by J. BENVENISTE, C. BOULLET, C. BRINK and C. LABAT, Brit. J. Pharmacol, The action of PAF Acether on guinea-pig isolated heart preparation, 80: 81-3 (1983).
# PAF Acether (100 pM) induced a decline in contractile strength (-30%) and a decrease of coronary flow (-50%).
# This effect was dose-dependent (disappearance of protective activity when dose ≤10^-7 M).
# rat portal vein = assay: Isolated rat portal vein, PAF Acether-induced increase of basal tonus
# Method: In vitro experiments were performed on isolated longitudinal strips of rat portal vein maintained in Krebs-Henseleit medium at 37° C. under an oxygen-rich gaseous circulation (95% O2 -5% CO2).
# The preparations were allowed to equilibrate for 1 hour under isotonic conditions with 500 mg tension and rinced every 15 minutes. When myogenic activity was established, PAF Acether (10^-7 M) is added. It induced an increase of the basal tonus and frequency of the myogenic activity.
# [3] = tested on: rabbit plasma-rich platelets (PRP); assay: Aggregation induced by other known aggregants (ADP, thrombine, calcium ionophore A 23187, collagen, adrenaline); type: cell-based; conditions: calcium ionophore A 23187, collagen and adrenaline
# Hartley guinea-pig = assay: PAF Acether-induced bronchoconstriction in the anesthetized guinea-pig; type: in vivo; conditions: 1 mg/kg IV
# Method: Method: (For details, see B. B. VARGAFTIG, J. LEFORT, F. WAL, M. CHIGNARD and M. C. MEDEIROS-Non-steroidal anti-inflammatory drugs of combined with anti-histamine and anti-serotonin agents interfere with the bronchial and platelet effects of PAF Acether-Enr. J. Pharm. (1982) 82 121-130). Male Hartley guinea-pig (400-500 g) were anesthetized with urethane 2 g/kg Ip., tracheotomised and ventilated by mean of a respiratory pump: 70-80 strokes mn, stroke volume 5 ml, a pneumothorax was done to abolish spontaneous respiration. The right jugular vein was catherized and used for injections.
# The initial resistance was kept constant at 10 cm H2 O pressure according to the method of Konzett and Rossler and the overflowed airway was measured with a bronchospasm transducer UGO BASILE connected to a UGO BASILE recorder "GEMINI". Bronchial sensitivity of the animal was checked with acetylcholine (10-40 ng kg^-1 IV) and after constant response was obtained, there were injected, IV, first the propylene glycol and, five minutes later, 60 ng/kg of PAF Acether, which gave the control bronchoconstriction expressed as % of maximal bronchoconstriction given by clamping off the trachea. 40 minutes later, the tested compounds were administered by IV injection and, 5 minutes later, 60 ng/kg of PAF Acether by the same route. This experimentation was conducted on three batches of each 10 animals: first batch for Ginkgolide A, second one for Ginkgolide B and last one for Ginkgolide C, all at the 1 mg/kg dose. The figures of the following table are the average values for the 10 animals of each batch.
# New-Zealand rabbits = assay: PAF Acether-induced shock in the rabbit; type: in vivo; conditions: for Extravasation (O.D.): 2 mg/kg IV perfusion, 30 mn, optical density at 590 nm, average of 10 animals
# Method: Treatment: Tested compounds (Gingkolides A, B and C) or vehicle were perfused in the ear vein in 45 ml NaCl 0.9% for 1 hour before PAF Acether injection. Vehicle consisted of 1.5 ml of propylene glycol completed to 45 ml by isotonic NaCl buffer; Ginkgolides were administered at the dose of 2 mg/kg IV; the figures reported in the following table are the average values of the 10 animals of each batch.
# human platelets = assay: Ex vivo PAF Acether-induced PA in man after IV administration; conditions: IV 25 mg, PAF Acether 100 nM
# Method: […] DMSO).
# The same protocol described hereinabove for rabbit was used in man with only one dose of each Ginkgolide (IV 25 mg) and two blood takes (at 0.5 h and 1 h).
# [4] = 2 mg/kg IV, PAF Acether 2 and 4 nmol/kg, 10 animals per batch
smiles,measurement,setting,value
CC1C(=O)OC2C(O)C34C5CC(C(C)(C)C)C36C(OC(=O)C6O)OC4(C(=O)O5)C12O (centres unmarked) [Ginkgolide B],"PAF Acether induced wheal, Surface","Sprague-Dowley rats; PAF Acether 25 ng intradermal, 30 mn, p < 0.001",58.5 mm^2
same,"PAF Acether induced wheal, Coloration OD","Sprague-Dowley rats; optical density at 620 nm, p < 0.001",0.628 OD
same,"PAF Acether induced wheal, Coloration % decrease",Sprague-Dowley rats; vs control,-45%
same,"PAF Acether induced wheal, Surface % decrease",Sprague-Dowley rats; vs control,-43%
same,IC50,human PRP,56 µM
same,IC50,[1]; PAF Acether 2.5 nM,1.88 µM
same,IC50,[1]; PAF Acether 5 nM,3.2 µM
same,inhibition of PAF Acether-induced decline in contractile strength and decrease of coronary flow,[2]; 2.10^-4 M,totally inhibited
same,dose at which protective activity disappears,[2],≤ 10^-7 M
same,IC50,"rat portal vein; Rattus norvegicus, PAF Acether 10^-7 M, added 30 minutes before PAF Acether, read-out: IC50 (antagonism of PAF Acether-induced increase of the basal tonus)",6.8 µg/mL
same,effect on the myogenic activity,rat portal vein; isolated rat portal vein,without effect
same,effect against aggregation induced by other known aggregants,[3],totally ineffective
same,% of bronchoconstriction,"Hartley guinea-pig; 5 minutes before PAF Acether 60 ng/kg IV, % of maximal bronchoconstriction, average of 10 animals",6.2%
same,% of inhibition (bronchoconstriction),Hartley guinea-pig; vs solvent in the same batch,92.3%
same,Extravasation (O.D.),New-Zealand rabbits; PAF Acether 2 nmol/kg,0.827 O.D.
same,Extravasation (O.D.),New-Zealand rabbits; PAF Acether 4 nmol/kg,0.880 O.D.
same,Behaviour: behavioural modifications,New-Zealand rabbits; [4],No behavioural
same,Behaviour: deaths,New-Zealand rabbits; [4],No death
same,% of aggregation with respect to control,human platelets; blood take at 0.5 h,0%
same,% of aggregation with respect to control,human platelets; blood take at 1.0 h,3.4%
